Measurements: patent publication US8883846B2, “Synthesis of bicyclic compounds and method for their use as therapeutic agents” (priority 2010, dated 2014)
Where “and” joins values, the source holds several entries; their conditions need not be identical. Equal entries are not always repeated. Where two headings read alike, the source gives them in different places.

What was measured:
[1] = target: recombinant H1N1 neuraminidase (Influenza A virus (strain A/Puerto Rico/8/1934 H1N1), UniProt P03468); assay: biochemical; assay type: biochemical
[2] = target: neuraminidase of NP40-inactivated influenza A/Brisbane/59/2007(H1N1) (Influenza A virus, UniProt D5F1R0); assay: In vitro neuraminidase assay vs. NP40-inactivated influenza virus; assay type: biochemical
neuraminidase = conditions: background statement; cited from earlier work
[3] = NP40-inactivated influenza A/Brisbane/59/2007(H1N1), read-out: IC50
[4] = NP40-inactivated virus, Lineweaver-Burk analysis

Sequence of recombinant H1N1 neuraminidase (P03468 36-454 limits assumed): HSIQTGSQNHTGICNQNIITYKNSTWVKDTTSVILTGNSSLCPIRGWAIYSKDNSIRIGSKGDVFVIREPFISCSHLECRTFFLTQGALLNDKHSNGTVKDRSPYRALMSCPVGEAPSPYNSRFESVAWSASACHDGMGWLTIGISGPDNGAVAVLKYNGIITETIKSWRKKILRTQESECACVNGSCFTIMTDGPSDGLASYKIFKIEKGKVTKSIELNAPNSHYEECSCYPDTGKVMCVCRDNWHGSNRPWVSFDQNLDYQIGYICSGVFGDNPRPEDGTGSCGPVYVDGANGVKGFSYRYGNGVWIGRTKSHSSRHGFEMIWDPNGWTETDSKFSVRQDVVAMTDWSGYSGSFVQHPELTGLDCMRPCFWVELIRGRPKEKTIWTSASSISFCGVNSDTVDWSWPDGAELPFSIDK
Sequence of neuraminidase of NP40-inactivated influenza A/Brisbane/59/2007(H1N1) (D5F1R0 1-470): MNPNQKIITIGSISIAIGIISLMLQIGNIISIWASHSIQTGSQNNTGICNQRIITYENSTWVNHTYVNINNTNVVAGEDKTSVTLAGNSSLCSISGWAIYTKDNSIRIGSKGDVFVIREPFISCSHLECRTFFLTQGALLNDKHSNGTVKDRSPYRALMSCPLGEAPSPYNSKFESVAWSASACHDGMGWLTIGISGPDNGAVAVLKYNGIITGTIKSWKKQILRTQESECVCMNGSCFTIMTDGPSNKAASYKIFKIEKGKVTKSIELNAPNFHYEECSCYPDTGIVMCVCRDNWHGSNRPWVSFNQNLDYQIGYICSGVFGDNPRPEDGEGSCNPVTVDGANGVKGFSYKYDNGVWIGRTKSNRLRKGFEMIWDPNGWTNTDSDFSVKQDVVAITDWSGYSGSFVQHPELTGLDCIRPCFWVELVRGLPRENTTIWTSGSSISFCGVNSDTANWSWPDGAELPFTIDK

Q: Which IC50 [1] does the source give for `C[C@@H]1C[C@](O)(C(=O)O)[C@H]2CCS(=O)(=O)[C@@H]12` [Compound 20] here?
A: 4000 µM

Q: And the “Inhibition Mode” value [1]?
A: mixed

Q: And the “inhibition of commercially available recombinant H1N1 neuraminidase” value [1]?
A: dose-dependent inhibition

Q: Which IC50 [1] does the source give for `C[C@@H]1C[C@](O)(C(=O)O)[C@H]2C[C@H](Cc3ccccc3)S(=O)(=O)[C@@H]12` [Compound 21] here?
A: > 10000 µM

Q: Which IC50 [2, 3] does the source give for `N=C(N)N[C@@H]1C[C@](O)(C(=O)O)[C@H]2CCS(=O)(=O)[C@@H]12` [Compound 27] here?
A: 3700 µM and 3800 µM

Q: What about the “Inhibition Mode” value [2, 4] of the same compound?
A: competitive

Q: And the Ki ([2]; NP40-inactivated virus, estimated from Km versus inhibitor concentration, read-out: Ki)?
A: 1000 µM

Q: For `CC(=O)N[C@H]1CS(=O)(=O)[C@H]2[C@@H]1[C@H](N)C[C@@H]2C(=O)O` [Compound 31], which IC50 [2, 3] is on record?
A: 92 µM

Q: What about the “Inhibition Mode” value [2, 4] of the same compound?
A: competitive

Q: For `CC(=O)N[C@H]1CS(=O)(=O)[C@H]2[C@@H]1[C@H](NC(=N)N)C[C@@H]2C(=O)O` [Compound 32], which “Inhibition Mode” value [2] is on record?
A: competitive

Q: What about the Ki [2] of the same compound?
A: 5 µM

Q: And the IC50 ([2]; IC50)?
A: 30 µM

Q: With `CCOC(=O)C1=C[C@@H](OC(CC)CC)[C@H](NC(C)=O)[C@@H](N)C1` [oseltamivir] as the compound, how does the “effective concentration as neuraminidase inhibitor” value (neuraminidase) read?
A: around 1 nM

Q: Which “potency relative to oseltamivir” value (neuraminidase) does the source give for `CCC(CC)[C@H](NC(C)=O)[C@@H]1[C@H](O)[C@@H](C(=O)O)C[C@H]1N=C(N)N` [peramivir] here?
A: roughly ten-fold
